Experimental data reported in PMC10744196, “Characterization of CrufCSP1 and Its Potential Involvement in Host Location by Cotesia ruficrus (Hymenoptera: Braconidae), an Indigenous Parasitoid of Spodoptera frugiperda (Lepidoptera: Noctuidae) in China” (Insects, 2023).
Read-outs that look alike come from different tables or passages of the source.

Legend:
CrufCSP1 [1] = test: Fluorescence competitive binding assay with 1-NPN as probe; design: species or system Cotesia ruficrus; conditions: for IC50: recombinant CrufCSP1 2 μM, ligand 0 to 30 μM, tris-HCl pH 7.4
Protocol: (§1) The binding affinity between CrufCSP1 and the selected volatile compounds was determined using an F-7000 fluorescence spectrophotometer (Hitachi, Tokyo, Japan). N-phenyl-1-naphthylamine (1-NPN), a fluorescence probe, was used to assess the binding affinity. A total of 24 volatiles, i.e., alcohols (heptanol, undecanol, tetradecanol, cis-3-hexen-1-ol, 1,14-tetradecanediol, 2-hexanol, phytol, and linalool), aldehydes (hexanal, heptanal, octanal, nonanal, decanal, dodecanal, pentadecanal, benzaldehyde, p-methyl benzaldehyde, and trans-2-hexenal), and others (2-hydroxy-5-methylacetophenone, 2-heptanone, palmitic acid, N,N-dimethylcaprylamide, DMNT, and cis-3-hexenyl acetate), were selected for the fluorescence binding assay with CrufCSP1. Of these compounds, our research group previously identified undecanol, tetradecanol, 2-hexanol, 1,14-tetradecanediol, phytol, dodecanal, pentadecanal, p-methyl benzaldehyde, palmitic acid, 2-hydroxy-5-methylacetophenone, and N,N-dimethylcaprylamide in the larvae of S. frugiperda. The remaining compounds were chosen based on previous studies that identified them as corn volatiles.
To prepare the tested chemicals, all were dissolved in chromatographic grade methanol to achieve a 100 mM solution, which was then stored at −20 °C. Before use, this solution was diluted to 1 mM. CrufCSP1 was dissolved in 20 mM of tris-HCl (pH 7.4) and then diluted to a 2 μM working solution. To ensure the binding affinity of 1-NPN to the protein, the CrufCSP1 solution was titrated with 1-NPN with a concentration range of 2 to 20 μM. For the fluorescence competitive binding assays, each ligand was added to a mixture containing CrufCSP1 (2 μM) and 1-NPN (2 μM) at concentrations ranging from 0 to 30 μM. The maximum fluorescence intensity was then recorded and plotted against the ligand concentration based on the average of the three repeats. The dissociation constant (Kd) for binding between CrufCSP1 and 1-NPN was calculated using the Scatchard linear regressive equation in the software GraphPad Prism 8.0 (GraphPad Software Inc., La Jolla, CA, USA). Additionally, the ligand-binding affinity (Ki) was calculated utilizing the following equation: Ki=[IC50]/(1+[1−NPN]/K1−NPN) where IC50 represents the maximum concentration at which the ligand replaces 50% of the 1 − NPN fluorescence, [1 − NPN] denotes the free concentration of 1-NPN, and K1-NPN represents the dissociation constant of the protein/1 − NPN complex.

CrufCSP1 [2] = test: Binding of fluorescent probe 1-NPN to recombinant CrufCSP1 (Scatchard plot); design: species or system Cotesia ruficrus; conditions: CrufCSP1 2 μM titrated with 1-NPN 2 to 20 μM, read-out: dissociation constant toward 1-NPN
Protocol: as §1, with “Of these compounds, our research group previously identified undecanol, tetradecanol, 2-hexanol, 1,14-tetradecanediol, phytol, dodecanal, pentadecanal, p-methyl benzaldehyde, palmitic acid, 2-hydroxy-5-methylacetophenone, and N,N-dimethylcaprylamide in the larvae of S. frugiperda. The remaining compounds were chosen based on previous studies that identified them as corn volatiles.” left out
To prepare the tested chemicals, all were dissolved in chromatographic grade methanol to achieve a 100 mM solution, which was then stored at −20 °C. […] For the fluorescence competitive binding assays, each ligand was added to a mixture containing CrufCSP1 (2 μM) and 1-NPN (2 μM) at concentrations ranging from 0 to 30 μM. The maximum fluorescence intensity was then recorded and plotted against the ligand concentration based on the average of the three repeats. […]

[3] = calculated from IC50: Ki=[IC50]/(1+[1-NPN]/K1-NPN), CrufCSP1 2 μM, 1-NPN 2 μM

Row | Compound | Ki (CrufCSP1 [1]; [3]) [µM] | IC50 (CrufCSP1 [1]; 1-NPN 2 μM) [µM] | also measured
1 | OCCCCCCCCCCCCCCO [1,14-Tetradecanediol] | > 50 | > 50 | –
2 | c1ccc(Nc2cccc3ccccc23)cc1 [1-NPN, N-phenyl-1-naphthylamine] | – | – | Kd (CrufCSP1 [2]): 7.67 µM
3 | CC(=O)c1cc(C)ccc1O [2-Hydroxy-5-methylacetophenone] | 20 | 22.8 | Ki (CrufCSP1 [1]; calculated from IC50: Ki=[IC50]/(1+[1-NPN]/K1-NPN), CrufCSP1 2 μM, 1-NPN 2 μM, listed as 2-hydroxy-5-methylacetophenone): < 20 µM
4 | O=Cc1ccccc1 [Benzaldehyde] | – | 17.4 | Ki (CrufCSP1 [1]): 15.2 µM; Ki (CrufCSP1 [1]; listed as benzaldehyde): < 20 µM
5 | C=C/C=C(\C)CCC=C(C)C [DMNT] | – | > 50 | Ki (CrufCSP1 [1]): > 50 µM
6 | CCCCCCCCCC=O [Decanal] | 21.8 | 24.9 | –
7 | CCCCCCCCCCCC=O [Dodecanal] | 36 | 41.1 | –
8 | CCCCCCCC(=O)N(C)C [N,N-Dimethylcaprylamide] | 19.3 | 22 | Ki (CrufCSP1 [1]; calculated from IC50: Ki=[IC50]/(1+[1-NPN]/K1-NPN), CrufCSP1 2 μM, 1-NPN 2 μM, listed as N,N-dimethylcaprylamide): < 20 µM
9 | CCCCCCCCCCCCCCCC(=O)O [Palmitic acid] | > 50 | > 50 | –
10 | CCCCCCCCCCCCCCC=O [Pentadecanal] | – | 44.5 | Ki (CrufCSP1 [1]): 39 µM
11 | CCCCCCCCCCCCCCO [Tetradecanol] | > 50 | > 50 | –
12 | Cc1ccc(C=O)cc1 [p-Methyl benzaldehyde] | – | 46 | Ki (CrufCSP1 [1]): 40.3 µM
13 | CCC/C=C/C=O [trans-2-Hexenal] | – | 16.5 | Ki (CrufCSP1 [1]): 14.5 µM; Ki (CrufCSP1 [1]; listed as trans-2-hexenal): < 20 µM
14 | Phytol | – | > 50 | Ki (CrufCSP1 [1]): > 50 µM

Further lines, with some results ahead:

Row | Ki (CrufCSP1 [1]; [3]) [µM] | IC50 (CrufCSP1 [1]; 1-NPN 2 μM) [µM] | Compound | also measured
15 | > 50 | > 50 | CCCCCC(C)=O [2-Heptanone] | –
16 | > 50 | > 50 | CCCCC(C)O (centres unmarked) [2-Hexanol] | –
17 | > 50 | > 50 | CCCCCCC=O [Heptanal] | –
18 | 27.7 | 31.6 | CCCCCCCO [Heptanol] | –
19 | 19.4 | 22.1 | CCCCCC=O [Hexanal] | Ki (CrufCSP1 [1]; calculated from IC50: Ki=[IC50]/(1+[1-NPN]/K1-NPN), CrufCSP1 2 μM, 1-NPN 2 μM, listed as hexanal): < 20 µM
20 | 19.8 | 22.6 | C=CC(C)(O)CCC=C(C)C (centres unmarked) [Linalool] | Ki (CrufCSP1 [1]; calculated from IC50: Ki=[IC50]/(1+[1-NPN]/K1-NPN), CrufCSP1 2 μM, 1-NPN 2 μM, listed as linalool): < 20 µM
21 | > 50 | > 50 | CCCCCCCCC=O [Nonanal] | –
22 | 15 | 17.2 | CCCCCCCC=O [Octanal] | Ki (CrufCSP1 [1]; calculated from IC50: Ki=[IC50]/(1+[1-NPN]/K1-NPN), CrufCSP1 2 μM, 1-NPN 2 μM, listed as octanal): < 20 µM
23 | > 50 | > 50 | CCCCCCCCCCCO [Undecanol] | –
24 | 24.7 | 28.2 | CC/C=C\CCO [cis-3-Hexen-1-ol] | –
25 | 29.2 | 33.4 | CC/C=C\CCOC(C)=O [cis-3-Hexenyl acetate] | –
